The target in one assay is T1, PH domain of PDK1 (Homo sapiens, UniProt O15530).
T1 sequence (O15530 459-550 limits assumed): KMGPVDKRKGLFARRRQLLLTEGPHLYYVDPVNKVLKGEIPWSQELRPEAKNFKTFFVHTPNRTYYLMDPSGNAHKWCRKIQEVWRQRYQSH
The settings on record: literature, relative affinities; cited from earlier work.

The target in a further assay is T2, PHISH (Mus musculus, UniProt Q9QXT1).
T2 construct: the gene for PHISH isolated from the expression screen encodes the entire protein; made in house; host or cells: in vitro transcription/translation (reticulocyte lysate) of a clone from a murine spleen cDNA library in pCS2(+)
T2 sequence (Q9QXT1 1-280): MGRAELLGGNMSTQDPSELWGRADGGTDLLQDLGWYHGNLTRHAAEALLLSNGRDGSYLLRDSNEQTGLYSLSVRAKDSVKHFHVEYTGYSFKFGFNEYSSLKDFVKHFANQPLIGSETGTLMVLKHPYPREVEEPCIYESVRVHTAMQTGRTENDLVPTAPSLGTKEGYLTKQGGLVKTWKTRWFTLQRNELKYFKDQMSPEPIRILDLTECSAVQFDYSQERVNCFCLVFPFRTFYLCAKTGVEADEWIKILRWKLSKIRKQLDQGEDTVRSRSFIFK
The assay can be described thus: Competition binding of non-biotinylated lipids against biotinylated PtdIns-3,4,5-P3 on avidin beads. Details: species or system murine. As to conditions: for relative affinity for PHISH in competition binding studies: FIG. 4B; for displacement of PHISH from PtdIns-3,4,5-P3-biotin bound to avidin beads: FIG. 4B legend, compared with PtdIns-4,5-P2. The method, then: (§1) Binding and Isolation of Radiolabeled In Vitro Translated Proteins with Biotinylated Phosphoinositides. Avidin beads (Ultralink immobilized Neutravidin™, Pierce Chemical) were washed twice with 5 volumes of wash/binding (WB) buffer (10 mM HEPES pH=7.4, 150 mM NaCl, 0.5% NP-40, 5 mM DTT). The beads were then reconstituted in 2×volume of WB buffer and the biotinylated phosphoinositide was added. Generally, 0.1 μl of 100 μM biotinylated lipid was bound per 1 μl of packed avidin beads. The biotinylated lipid was incubated with the beads for 1-2 hours at 4° C. with gentle agitation and then washed twice with 10×-bead volume of WB buffer to remove excess ligand. Control beads without biotinylated lipid were prepared in an identical manner but without the addition of the lipid. 5 μl of the ^35S-labelling reaction containing the in vitro transcribed/translated protein was then added to the tubes and the protein was allowed to bind for 2 hours at 4° C. with gentle agitation. The tubes were then centrifuged briefly, the beads were washed 2×with 0.5 ml WB buffer, and the bound proteins were eluted by boiling the beads in 20 μl Laemmli sample buffer containing 5% 2-mercaptoethanol. The proteins were then separated on a 13.75% SDS-PAGE gel. Following electrophoresis the gel was soaked in EnHance (Dupont/NEN) for 1 hour and then in a 7.5% w/v solution of PEG-3350 for 1 hour. The gel was then dried and subjected to autoradiography.
Competition Binding of Isolated Proteins for Non-biotinylated Lipids over Biotinylated Lipids. […] Binding was quantitated by measuring the intensities of bands from the autoradiogram or by scintillation counting of the eluted proteins in Laemmli sample buffer using Opti-fluor (Packard). Binding curves were modeled by the equation: […]
where % bound represents the quantity of protein bound to the biotinylated lipid coated beads in the presence of a concentration C of competing lipid. IC50 is the molar excess of competitor C required to reduce the % bound to 50% of its maximal value in the absence of competitor.
In Vitro Translation Expression Cloning. A murine spleen cDNA library containing 2×10^5 independent clones was divided into 1700 individual small pools. The cDNAs in this library had been cloned into the in vitro transcription vector pCS2(+) under control of the SP6 promoter. Individual cDNAs from positive pools were isolated from the other cDNAs of the pool using a 96-well format as described previously. The individual cDNAs were sequenced (Harvard Biopolymer Facility) and compared with known sequences by searching GenBank databases.

The target in another assay is T3, PH domain of EST684797 (Homo sapiens, UniProt Q9UN19).
T3 sequence (Q9UN19 164-259): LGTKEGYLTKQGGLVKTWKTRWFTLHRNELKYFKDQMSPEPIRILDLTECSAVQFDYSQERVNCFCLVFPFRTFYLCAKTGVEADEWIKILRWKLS
As to conditions: literature; cited from earlier work.

Assay [1] concerns the target MBP-Akt PH fusion protein (Mus musculus, UniProt P31750). The assay can be described thus: Competition binding of non-biotinylated lipids against biotinylated PtdIns-3,4,5-P3 on avidin beads. The settings on record: FIG. 2C legend; compared with PtdIns-4,5-P2.
Procedure: The proteins were expressed by transcribing/translating 0.01-1 μg of DNA of MBP or MBP-Akt PH with the Promega TnT Coupled Reticulocyte Lysate System using SP6 RNA polymerase and ^35S-methionine (in vivo labeling grade, Amersham) according to the manufacturers protocol.
Binding and Isolation of Radiolabeled In Vitro Translated Proteins with Biotinylated Phosphoinositides. Avidin beads (Ultralink immobilized Neutravidin™, Pierce Chemical) were washed twice with 5 volumes of wash/binding (WB) buffer (10 mM HEPES pH=7.4, 150 mM NaCl, 0.5% NP-40, 5 mM DTT). The beads were then reconstituted in 2×volume of WB buffer and the biotinylated phosphoinositide was added. Generally, 0.1 μl of 100 μM biotinylated lipid was bound per 1 μl of packed avidin beads. The biotinylated lipid was incubated with the beads for 1-2 hours at 4° C. with gentle agitation and then washed twice with 10×-bead volume of WB buffer to remove excess ligand. […]
Competition Binding of Isolated Proteins for Non-biotinylated Lipids over Biotinylated Lipids. […] Binding was quantitated by measuring the intensities of bands from the autoradiogram or by scintillation counting of the eluted proteins in Laemmli sample buffer using Opti-fluor (Packard). […]
In a further assay the target is PH domain of Akt (Homo sapiens, UniProt P31749). The settings on record: two published studies; cited from earlier work.
Chain of PH domain of Akt (P31749 5-108 limits assumed): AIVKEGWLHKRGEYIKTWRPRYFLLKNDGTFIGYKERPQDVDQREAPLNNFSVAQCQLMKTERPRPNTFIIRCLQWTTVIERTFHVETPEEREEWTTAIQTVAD
For assay [2], the target named is T4, PDK1 (C-terminal fragment with PH domain) (Mus musculus, UniProt Q9Z2A0).
T4 construct: the first in-frame AUG codon appears at the end of the kinase domain such that only the entire PH domain of PDK1 is translated; made in house; host or cells: in vitro transcription/translation (reticulocyte lysate) of a clone from a murine spleen cDNA library in pCS2(+)
T4 sequence (Q9Z2A0 462-553 limits assumed): T1 sequence (O15530 459-550 limits assumed) with R88Q, H92N
The assay can be described thus: Binding of 35S-labeled in vitro translated protein to avidin beads pre-bound with biotinylated phosphoinositide. Details: species or system murine. The settings on record: FIG. 3A top panel right. The method, then: as §1, with “The gel was then dried and subjected to autoradiography.” left out

Residue numbers refer to the chain shown, from its start.

Chain of MBP-Akt PH fusion protein (P31750 1-130): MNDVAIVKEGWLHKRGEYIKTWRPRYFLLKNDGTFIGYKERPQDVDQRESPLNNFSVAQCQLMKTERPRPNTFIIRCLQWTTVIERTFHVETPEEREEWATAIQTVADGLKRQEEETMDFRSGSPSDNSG

“phosphatidylinositol-3,4,5-trisphosphate [PtdIns-3,4,5-P3]”: the “affinity for the PH domain of PDK1” value on PH domain of PDK1 is given as “four-fold higher affinity”. Besides, at PHISH, the “relative affinity for PHISH in competition binding studies” value (shortened to “relative affinity for PHISH”) is reported as “equal affinity” and the “displacement of PHISH from PtdIns-3,4,5-P3-biotin bound to avidin beads” value is on record as “preferentially displace”. Besides, the “binding to the PH domain of EST684797” value at PH domain of EST684797 is “binds tightly and selectively”.

Take “phosphatidylinositol-3,4-bisphosphate [PtdIns-3,4-P2]”: the “displacement of MBP-PH from PtdIns-3,4,5-P3-biotin” value in assay [1] is listed as “preferentially displace”. In addition, the “rank order of affinities for the PH domain of Akt” value on PH domain of Akt was “PtdIns-3,4,5-P3>PtdIns-3,4-P2>>PtdIns-4,5-P2”. For the same substance, at PHISH, the “relative affinity for PHISH” value is recorded as “equal affinity” and the “displacement of PHISH from PtdIns-3,4,5-P3-biotin bound to avidin beads” value is reported as “preferentially displace”. Besides, the “binding of the expressed purified PDK1 fragment (single clone)” value in assay [2] was “apparent lower affinity than for PtdIns-3,4,5-P3”. The “binding to the PH domain of EST684797” value on PH domain of EST684797 is “binds tightly and selectively”.

For the substance “phosphatidylinositol-4,5-bisphosphate [PtdIns-4,5-P2]”, the “affinity for the PH domain of PDK1” value on PH domain of PDK1 is “much lower affinity”. Further, the “rank order of affinities for the PH domain of Akt” value on PH domain of Akt is listed as “PtdIns-3,4,5-P3>PtdIns-3,4-P2>>PtdIns-4,5-P2”. The “relative affinity for PHISH” value on PHISH is reported as “significantly lower affinity”.
